As a reminder, the pEC50 is −log10 of the EC50, conventionally taken in molar units. The Emax is the greatest response seen or fitted, relative to the assay's reference.

Our source for the EC50 and Emax values is patent US11753374B2, “Compounds for the treatment of acute and chronic kidney disease” (Southern Research Institute, priority 2020, dated 2023).

The subject of the assay is heme oxygenase-1 (HO-1). Description: High throughput screen: HO-1 promoter/enhancer luciferase reporter (pHOGL3/4.5+220) in stable HEK293 cells. It counts as cell-based. As to conditions: Homo sapiens; for pEC50: Table 1, evaluation of biaryl aminomaleimides, HO-1 induction; for Emax: Table 1, unit inferred, Emax as % of 5 μM hemin. Here is the method: The generation of the pHOGL3/4.5+220 construct is described in Deshane, et al. (2010) “SpI regulates chromatin looping between an intronic enhancer and distal promoter of the human heme oxygenase-1 gene in renal cells” J Biol Chem 285(22): 16476-86. See also FIG. 1.
Briefly, BamHI sites were added to the 4.5-kb PCR product generated by long-range PCR from a bacterial artificial chromosome clone containing portions of chromosome 22 (accession no. Z82244), including the HO-1 gene. This fragment was cloned into the BglII restriction site of the multiple cloning region to make the parental clone (pHOGL3/4.5). The 220-bp intronic enhancer was amplified with SalI sites on either end and cloned into the SalI site of the vector to generate pHOGL3/4.5+220.
In order to generate cells that stably express luciferase expression vectors that lack a mammalian antibiotic selection cassette, HEK293 cells were co-transfected with either pHOGL3/4.5+220 (Deshane et al, 2010) or the Triple Mutant construct (Liby, Hock et al, 2005; Hock et al, 2007) and pcDNA3.1 Zeocin using Lipofectamine 2000. Cells were cultured in Zeocin (400 ug/ml; Invitrogen) for selection. Individual clones were sorted by flow cytometry and plated into a 96-well plate at a density of one cell per well. Clones were maintained and expanded in complete media (DMEM/10% FBS/1× antibiotic-antimycotic) supplemented with 100 ug/ml Zeocin, and incubated at 37° C. in 5% carbon dioxide. Incorporation of the Luciferase expression vectors was validated by assaying for luciferase.
A library of over 150,000 compounds, as well as a library of over 4,000 FDA approved compounds, were used in the HTS assay. […] This led to the identification of approximately 800 compounds that induce HO-1 and have desirable chemical structures. […] The In-Cell Western assay was optimized to screen for endogenous HO-1 in a high throughput platform, and results were validated by Western blot, real-time PCR, and enzyme activity assays. Additional RNA sequencing studies highlighted a role for the transcription factor Nrf2 and other targets in HO-1 induction by several small molecules.

Molecules are shown by their SMILES. pEC50: −log10 of the molar value. A value given as a limit tells only on which side of the number the result lay.

As for `O=C1C=C(Nc2cc(F)c(O)c(F)c2)C(=O)N1CCc1ccccc1` [Compound 46], the pEC50 was 6.37 and the Emax is 68.5%.
On the same counts, the results for `O=C1C=C(Nc2ccc(O)cc2F)C(=O)N1c1ccccc1` [Compound 4] are 5.75 and 38.9%.
For the compound `COc1cc(N2C(=O)C=C(Nc3cc(F)c(O)c(F)c3)C2=O)cc(OC)c1OC` [Compound 33], the pEC50 was 5.68 and the Emax was found to be 28.4%.
On the same counts, the results for `O=C1C=C(Nc2cc(F)c(O)c(F)c2)C(=O)N1c1cccc(F)c1` [Compound 63] are 5.50 and 30%.
On the same counts, the results for `COc1c(Cl)cccc1N1C(=O)C=C(Nc2cc(F)c(O)c(F)c2)C1=O` [Compound 34] are less than 4.30 and 28.3%.
On the same counts, the results for `O=C1C=C(Nc2cc(F)c(O)c(F)c2)C(=O)N1c1ccccc1C(F)(F)F` [Compound 47] are 4.71 and 91.1%.
Regarding `O=C1C=C(Nc2ccc(O)c(F)c2)C(=O)N1c1ccccc1` [Compound 3], the pEC50 was 5.73 and the Emax was 56.4%.
`O=C1C=C(Nc2ccc(O)c(Cl)c2)C(=O)N1c1ccccc1` [Compound 7]: the pEC50 is less than 4.30.
In the case of `O=C1C=C(Nc2ccc(F)c(F)c2O)C(=O)N1c1ccccc1` [Compound 17], the pEC50 was 4.92 and the Emax was 54.4%.
Taken in the same sequence, the figures for `O=C1C=C(Nc2ccc(O)c(Cl)c2F)C(=O)N1c1ccccc1` [Compound 9] were 5.77 and 33.7%.
On the same counts, the results for `O=C1C=C(Nc2cc(F)c(O)c(F)c2)C(=O)N1c1ccc(OC(F)F)cc1` [Compound 55] are 5.64 and 93.3%.
On the same counts, the results for `COc1ccc(N2C(=O)C=C(Nc3cc(F)c(O)c(F)c3)C2=O)cc1` [Compound 30] are 5.54 and 111%.
`NC(=O)c1cccc(N2C(=O)C=C(Nc3cc(F)c(O)c(F)c3)C2=O)c1` [Compound 51]: the pEC50 is 4.81 and the Emax came to 62.4%.
Taken in the same sequence, the figures for `O=C1C=C(Nc2cc(F)c(O)c(F)c2)C(=O)N1c1ccc(N2CCOCC2)cc1` [Compound 60] were 4.65 and 66.9%.
Taken in the same sequence, the figures for `O=C1C=C(Nc2cc(Cl)c(O)c(Cl)c2)C(=O)N1c1ccccc1` [Compound 5] were 4.50 and 72.8%.
For `O=C1C=C(Nc2ccc(O)c3ncccc23)C(=O)N1c1ccccc1` [Compound 13], the pEC50 is less than 4.30.
As for `O=C1C=C(Nc2cc(F)c(O)c(F)c2)C(=O)N1c1cc(F)cc(F)c1` [Compound 27], the pEC50 was less than 4.30 and the Emax worked out at 72.6%.
On the same counts, the results for `COc1ccc(N2C(=O)C=C(Nc3cc(F)c(O)c(F)c3)C2=O)cc1C#N` [Compound 56] are 5.08 and 36.1%.
On to `CC(C)c1ccc(N2C(=O)C=C(Nc3cc(F)c(O)c(F)c3)C2=O)cc1` [Compound 36], for which the pEC50 was 6.05 and the Emax stood at 52.5%.
Taken in the same sequence, the figures for `O=C1C=C(Nc2cc(F)c(O)c(F)c2)C(=O)N1C1CCCCC1` [Compound 67] were less than 4.30 and 25.6%.
For `O=C1C=C(Nc2ccc(O)cc2)C(=O)N1c1ccccc1` [Compound 2], the pEC50 is 5.74 and the Emax worked out at 38.1%.
On the same counts, the results for `O=C1C=C(Nc2cc(F)c(O)c(F)c2)C(=O)N1c1ccc(C(F)(F)F)cc1` [Compound 39] are 5.36 and 94.9%.
